l = locked nucleic acid (LNA); d = 2'-deoxy (DNA)

The test system of one data set is AMO1/abzb xenografts. Description: In vivo tumor growth of Bortezomib-refractory AMO1/abzb xenografts (IVIS). Further details: species or system mice. As to conditions: I.P. Bortezomib 1 mg/kg; Bortezomib-refractory model. The source says: Male CB-17 severe combined immunodeficient (SCID) mice (6- to 8-weeks old; Harlan Laboratories, Inc., Indianapolis) were housed and monitored in our Animal Research Facility. All experimental procedures and protocols had been approved by the Institutional Ethical Committee (Magna Graecia University) and conducted according to protocols approved by the National Directorate of Veterinary Services (Italy). In accordance with institutional guidelines, mice were sacrificed when tumors reached 2 cm in diameter or in the event of paralysis or major compromise, to prevent unnecessary suffering. Animal experimental procedures have been performed as in previous reports (Di Martino et al, CCR 2012; Di Martino el al. Oncotarget 2013, Di Martino et al PlosOne 2014). […] Mice were also inoculated with 5×10^6 luciferase gene-marked U266, AMO-1, AMO-1/abzb, treatments were performed intraperitoneally (i.p.), and tumor volume were measured by IVIS Lumina II.
In vivo anti-MM activity of LNA gapmer_06 was next evaluated in NOD/SCID mice bearing subcutaneous AMO1 xenografts. […] Tumors volume were measured using IVIS LUMINA II Imaging We next evaluate the in vivo activity in Bortezomib-refractory model of human MM. […] Tumors volume were measured using IVIS LUMINA II Imaging System.

For data set [1], the system named is miR-17-92 primary transcript (pri-miRs) and mature miR-17-92 cluster members. Put plainly: q-RT-PCR of miR-17-92 member family and two pri-miRs after transfection of MM cells. It counts as cell-based, Human. As to conditions: 48 hours after transfection with 25 nM; NCI-H929 and RPMI-8226 cells; relative to RNase-free water. The protocol:
3×10^5 cells were transfected using Neon Transfection System (Invitrogen, Calif.,U.S.), (2 pulses at 1150, 30ms). The transfection efficiency evaluated by flow-cytometric analysis relative to a FAM dye—labeled anti-miR—negative control reached 85% to 90%.
Reverse transcription (RT) of both primary and mature miRNAs was performed using TaqMan® MicroRNA Assays, following a procedure for multiplexing the RT step (Life Technologies, Publication Part Number 4465407). Briefly, 500 ng of total RNA, prepared with the TRIzol® Reagent (Invitrogen), underwent reverse transcription by the Taq-Man® MicroRNA RT Kit. In this reaction, the RT primer pool was composed by the individual RT primers for each microRNA belonging to the miR-17-92 cluster and two RT primers to allow the reverse transcription of the miR-17-92 primary miRNA. Real-time PCR was performed using TaqMan® MicroRNA Assays together with the TaqMan® Universal PCR Master Mix on an ViiA7 System (Life Technologies). Both primary and mature microRNAs expressions were relatively quantified using the 2-ΔΔCt method (Applied Biosystems User Bulletin No. 2), and expressed as the relative quantity of target miRNA normalized to the RNU44 (assay ID 001094) housekeeping gene. Comparative real-time polymerase chain reaction (RT-PCR) was performed in triplicate, including no-template controls. Relative expression was calculated using the comparative cross threshold (Ct) method.
By the use of a custom q-RT-PCR plate specifically designed by us to detect all six mature miR-17-92 members and the primary transcript by two different assays (pri-mir-17/18a/19a and pri-mir-19b1/20a/92a1), we quantified in a panel of 11 MM cell lines the levels of the different miRNAs and pri-miRs.

On to `CC(C)C[C@H](NC(=O)[C@H](Cc1ccccc1)NC(=O)c1cnccn1)B(O)O` [Bortezomib, reference compound], for which, in the data set on AMO1/abzb xenografts, the “tumor growth (IVIS tumor volume)” value was “no effect on tumor-growth”.

Regarding “gapmer_15: LNA/DNA gapmer, SEQ ID 7 (16 mer): +A*+G*+C*A*C*T*C*A*A*C*A*T*C*+A*+G*+C (AGCACTCAACATCAGC; sugars from the 5' end l3 d10 l3, all phosphorothioate, methylation of C not given here)”, the “downregulation of primary and mature miRNA sequences (q-RT-PCR)” value in data set [1] is “strongest downregulation of primary transcripts and miR-17-92 mature members”.

Source of the values: US20180051284A1, “INHIBITORS OF MIR-17-92 CLUSTER FOR ANTI-TUMOR ACTIVITY IN MULTIPLE MYELOMA AND OTHER MALIGNANCIES” (priority 2014, published 2018).
